US10273279B2, “Protease activated receptor-1 (PAR1) derived cytoprotective polypeptides and related methods” (THE SCRIPPS RESEARCH INSTITUTE, priority 2011, dated 2019)

Experiments:
[1] = test system: VEGF-induced vascular leakage in SKH1 hairless mice; assay: In vivo vascular permeability assay (modified Miles assay, VEGF-induced Evans blue extravasation in skin); design: species or system mouse; details: for decrease in vascular leakage compared to PBS control: 125 μg peptide i.v. retro-orbital 5 min before s.c. VEGF165, Evans blue at 700 nm; for vascular leakage in the absence of VEGF: BSA vehicle sites, 125 μg peptide i.v.
Method: To probe whether TR47-66 could induce vascular protective effects in vivo, a modification of the modified Miles assay was used in which vascular permeability is measured by the extravasation of Evans blue dye in the skin induced by local subcutaneous injection of vascular endothelial growth factor (VEGF)165. Immunocompetent SKH1 hairless mice were used to avoid the need for hair removal that often can result in artifactual leakage due to inflammation of the skin. Evans blue extravasation in the skin was quantified using the Odyssey near-infrared fluorescent imager at 700 nm. TR47-66 peptide or the control scrTR47 peptide were injected i.v. in the retro-orbital sinus 5 min before local subcutaneous injection of recombinant murine VEGF or BSA control and 30 min after i.v. administration of Evans blue. In the absence of TR47-66 (PBS control), VEGF induced clearly distinguishable areas of Evans blue extravasation, whereas after injection of BSA vehicle control only the needle points marking the injection site could be observed. Quantification of Evans blue extravasation by near infrared fluorescence at 700 nm eliminated the time consuming need for Evans blue extraction from punch biopsy and provided reliable and reproducible results. […] Thus, like APC, the TR47 peptide causes activation of Rac1, stabilizes endothelial barriers in vitro, and in vivo can markedly reduce vascular leakage. The study was approved by the Institutional Animal Care and Use Committee of The Scripps Research Institute and complied with National Institutes of Health guidelines. SK1H1-E hairless male (6 to 8 weeks old) were from Charles River Labs (Wilmington, Mass.). Vascular permeability was determined using a known VEGF-induced leakage model (Sanna et al., Nat. Chem. Biol. 2006; 2(8):434-441; and Miles et al., J Physiol 1952; 118(2):228-257) with some modifications. Briefly, 100 μL of a sterile-filtered solution containing 0.5% (w/v) Evans blue (Sigma) in 0.9% NaCl (Sigma) was injected in isofluran-anesthetized mice. After 30 min, 50 μL of peptides (125 μg; TR47 or scrTR47) or PBS were injected intravenously in the retro-orbital sinus of mice anesthetized with Ketamin-Xylazin (100 and 10 mg/kg, respectively). After 5 min, mice received subcutaneously 15 μL of 75 ng/injection recombinant mouse VEGF165 (BioVision, Milpitas, Calif.) in 0.1% BSA-PBS (3 sites on the right side of the abdomen) or vehicle (2 sites on the left side). After 30 min, mice were sacrificed, photographed, and Evans blue extravasation in the skin was determined using the Odyssey Imager (LI-COR Biosciences, Lincoln, Nebr.) in the 700 nm channel with 4 mm offset. Quantification of the intensity of the Evans blue dye signal was done using the Odyssey Application Software version 3.0. […]

[2] = test system: EA.hy.926 endothelial cells; assay: Staurosporine-induced endothelial cell apoptosis (Apopercentage dye); assay type: cell-based, human; details: 4 hrs pretreatment, 50 μM NPND, 50 μM scr-NPND or 10 μM TFLL, staurosporine 10 μM
Method: Activated Protein C (APC) conveys anti-apoptotic activity to EA.hy.926 cells that requires functional PAR1 receptor and APC binding to the endothelial protein C receptor (EPCR). See, e.g., Mosnier at al., Biochem J. 2003; 373:65-70; and Mosnier at al., Blood. 2007; 109:3161-3172.
Methods: EA.hy.926 cells (ATCC: CRL-2922) were grown in 24 well plates in DMEM (Invitrogen #12430) supplemented with glutamax (Invitrogen #35050) and 10% FBS (Hyclone #35-011-CV) in a 37° C. cell incubator with a humidified atmosphere and 5% CO2 in air until confluency. Cells were treated for 4 hrs with vehicle control, 50 μM NPND, 50 μM scr-NPND or 10 μM TFLL after which staurosporine (10 μM) and the Apopercentage dye (Biocolor) were added according the manufacturer's instructions. After 1 hr cells were washed with 2×1 ml PBS and 110 μl of the dye release agent was added to the cells. Subsequently 100 μl aliquots were transferred to a black 96 well plate and fluorescence was measured (530 nm excitation/580 nm emission). Apoptosis was expressed as a percentage of cells treated with 10 mM H2O2 for which apoptosis was set at 100%.

[3] = biological target: T1, synthetic PAR1 peptide (TR33-62) (Homo sapiens, UniProt P25116); assay: Cleavage of synthetic PAR1 peptide TR33-62 by APC or thrombin, reverse phase HPLC and MALDI-TOF; assay type: biochemical; details: APC 500 nM or thrombin 5 nM, TR33-62 100 μM, HBS pH 7.4
T1 construct: purchased Biosynthesis; host or cells: chemical synthesis
T1 sequence (P25116 33-62 limits assumed): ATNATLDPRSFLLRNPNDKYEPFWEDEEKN
Source text: Samples were subjected to reverse phase HPLC on a C18 column while the eluent was monitored at 214 nm during a 0%-67% gradient of acetonitrile in water containing 0.1% trifluoroacetic acid. Peptide fragments were collected and subjected to MALDI-TOF (Scripps mass spectrometry core facility) analysis.

Substance	decrease in vascular leakage compared to PBS control [1]	vascular leakage in the absence of VEGF [1]	inhibition of staurosporine-induced endothelial cell apoptosis [2]	inhibition of staurosporine-induced endothelial cell apoptosis ([2]; listed as NPND-peptide)	cleavage sites in TR33-62 peptide [3]
NPNDKYEPFWEDEEKNESGL (listed as Homo sapiens) [TR47-66]	45%	Neither TR47-66 nor scrTR47 affected vascular leakage	significantly inhibited	inhibited staurosporine-induced endothelial cell apoptosis	–
GDENENEKPNWYELKEPDSF (scrambled sequence) [scr-TR47-66, control scrambled TR47-66 peptide containing scrambled residues 47-66, reference compound]	indiscriminate from PBS control	Neither TR47-66 nor scrTR47 affected vascular leakage	did not convey detectable anti-apoptotic effects	–	–
thrombin	–	–	–	–	cleavage at Arg^41
APC: Activated Protein C, serine protease with anticoagulant and cytoprotective cell signaling activities	–	–	–	–	cleaves this PAR1 peptide at Arg^46 as well as at Arg^41
